Where “and” joins values, the source holds several entries; their conditions need not be identical. Identical values can stand only once. Like-named read-outs stand apart in the source and are kept apart here.
Tests used:
NSP1 = NSP1 (Severe acute respiratory syndrome coronavirus 2, UniProt P0DTD1)
eIF1A = biological target: T1, eIF1A (Homo sapiens, UniProt P47813); assay type: binding; details: for fluorescence ratio, eIF1A: background-corrected, relative to DMSO or lowest 1Ai concentration, replicate columns
T1 construct: His-bdSUMO (cleaved yes); made in house; host or cells: E. coli BL-21

[1] = system: CUG/GUG vs AUG start codon luciferase reporters in HEK293T cells; assay: Near-cognate AUG starting codon fidelity reporter assay (GUG, CUG vs AUG); assay type: cell-based; details: for CUG vs AUG (%): CUG start codon reporter relative to AUG reporter (AUG = 100); for CUG vs AUG (%) / GUG vs AUG (%): single-experiment calculation; for GUG vs AUG (%): GUG start codon reporter relative to AUG reporter (AUG = 100); for average CUG and GUG / average CUG and GUG relative to DMSO / CUG Average / GUG Average: NUG experiment; for CUG Average: CUG vs AUG reporter; for GUG Average: GUG vs AUG reporter; for NUG (Final data, Fig. 1E): average CUG and GUG relative to DMSO, 20 µM overnight; for GUG vs AUG data (%): individual repeat; for GUG vs AUG (%) Average: summary average of repeats, DMSO control average […]
eIF1A-RPS10 interaction = biological target: T2, eIF1A-RPS10 interaction (Homo sapiens, UniProt P46783+P47813); assay: Split-Renilla luciferase eIF1A-RPS10 interaction screen, dose-response; assay type: biochemical
T2 construct: made in house; host or cells: E. coli BL21 (PRSFduet); unpurified lysate supernatant
Outline: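 Split-Renilla luciferase complementation using bacterially expressed (BL21) eIF1A-ΔC-Renilla and RPS10-ΔN-Renilla in clarified lysates (TKE buffer); eIF1A C-terminus fused to N-RL. Compound interference with eIF1A-RPS10 interaction read as loss of reconstituted RL activity; split-RL halves alone served as controls.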

[2] = system: IRF7 5'UTR firefly luciferase reporter in HEK293T cells; details: for Reference vs IRF7 (Final data, Fig. 1E): 1/Result, relative to DMSO; for LONG (summary - All), normalized to DMSO: Long reporter; for LONG (summary - All), normalized to DMSO / SHORT (summary - All), normalized to DMSO: individual replicates, outliers excluded, DMSO = 1; for SHORT (summary - All), normalized to DMSO: Short reporter; for Long 5'UTR reporter luciferase activity, normalized to DMSO (=1), single replicates: left data block (Long), source data of Fig 1C; for average ( long vs short ratio): summary - All;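 for all read-outs here: luciferase signal corrected by a co-transfected GFP reporter for transfection efficiency, read after overnight compound exposure, with Long and Short reporters differing in 5'UTR length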
[3] = compound at 10uM (summary head)
[4] = summary table, read-out: IC50 concentration (µM), IC50 screen
[5] = eIF1A, from the titration data, read-out: IC50 (eIF1A titration block)
[6] = summary table, fluorescence binding assay, read-out: IC50 concentration (µM), WT eIF1A
[7] = compound at 20uM (summary head)

T1 sequence (P47813 whole entry): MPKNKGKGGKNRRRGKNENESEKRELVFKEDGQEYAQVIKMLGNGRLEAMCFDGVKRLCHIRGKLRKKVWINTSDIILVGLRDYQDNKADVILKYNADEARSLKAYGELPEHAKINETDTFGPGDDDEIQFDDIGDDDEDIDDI
T2 sequence (P47813 whole entry, one chain of several): as the sequence (P47813 whole entry) above

| Compound | GFP reporter ratio nsp1/gfp, avg (NSP1) | GFP reporter ratio nsp1/gfp, rep 1 (NSP1) | gfp signal, mean of duplicate wells (NSP1) | nsp1 signal, mean of duplicate wells (NSP1) | ratio (nsp1/gfp) (NSP1) | fluorescence ratio, eIF1A (eIF1A; 1Ai conc. 0.25 uM) | fluorescence ratio, eIF1A (eIF1A; 1Ai conc. 0.5 uM) | fluorescence ratio, eIF1A (eIF1A; 1Ai conc. 1 uM) | fluorescence ratio, eIF1A (eIF1A; 1Ai conc. 2 uM) | fluorescence ratio, eIF1A (eIF1A; 1Ai conc. 4 uM) | fluorescence ratio, eIF1A (eIF1A; 1Ai conc. 8 uM) | fluorescence ratio, eIF1A (eIF1A; 1Ai conc. 16 uM) | fluorescence ratio, eIF1A (eIF1A; 1Ai conc. 32 uM) | fluorescence ratio, eIF1A (eIF1A; 1Ai conc. 64 uM) | fluorescence ratio, eIF1A (eIF1A; 1Ai conc. 256 uM) | average CUG and GUG [1] | average CUG and GUG relative to DMSO [1] | CUG Average [1] | GUG Average [1] | NUG (Final data, Fig. 1E) [1] | further results |
| --- | --- | --- | --- | --- | --- | --- | --- | --- | --- | --- | --- | --- | --- | --- | --- | --- | --- | --- | --- | --- | --- |
| COc1ccc2oc(C(=O)OC(C)C(=O)Nc3sccc3C(N)=O)c(C)c2c1 (centres unmarked) [1Ai-3044] | 0.4548 | 0.4548 | 2086.5 | 949 | 0.455 | 0.7896 and 0.9625 | 0.8401 and 0.9684 | 0.783 and 0.965 | 1.321 and 0.9132 | 1.411 and 0.9093 | 1.361 and 0.8279 | 1.171 and 0.7406 | 1.256 and 0.7959 | 1.351 and 0.8195 | 1.419 and 0.8072 | 5.9112 | 1.3106 | 9.682 | 2.141 | 1.311 | WT eIF1A IC50 (eIF1A; fluorescence binding): No binding; IC50 concentration (µM), WT eIF1A (eIF1A; summary table, fluorescence binding assay): No binding; CUG vs AUG (%) [1, 3]: 8.177%; GUG vs AUG (%) [1, 3]: 1.952%; GUG vs AUG data (%) ([1]; compound at 10uM): 2.24% and 1.90% and 2.01% and 2.41%; GUG vs AUG (%) Average ([1]; compound at 10uM): 2.14%; IC50 (eIF1A-RPS10 interaction; Appendix Table S1, read-out: IC50 from the split RL screen): 15 µM; IC50 (eIF1A-RPS10 interaction; [4]): 10 µM; Reference vs IRF7 (Final data, Fig. 1E) ([2]; 20 µM): 0.527; LONG (summary - All), normalized to DMSO ([2]; 10 µM): 0.55 and 1.64 and 1.20 and 0.82 and 1.11; SHORT (summary - All), normalized to DMSO ([2]; 10 µM): 0.72 and 0.67 and 0.70 and 0.63; Long 5'UTR reporter luciferase activity, normalized to DMSO (=1), single replicates ([2]; compound at 10 µM): 0.5511 and 1.639 and 1.204 and 0.8163 and 1.106; average ( long vs short ratio) ([2]; 10 µM): 1.568 |
| CN1CCN(S(=O)(=O)c2ccc(N3Cc4cc5c(cc4C4(CCCC4)C3)OCCO5)nc2)CC1 [1Ai-3564] | 0.5007 | 0.5007 | 362.5 | 181.5 | 0.501 | 1.044 and 1 | 1.089 and 1.095 | 1.239 and 0.9891 | 1.143 and 0.9513 | 1.209 and 0.9045 | 1.156 and 0.8599 | 1.357 and 1.021 | 1.557 and 1.107 | 1.6 and 1.164 | 1.73 and 1.413 | 6.96 | 1.543 | 10.8773 | 3.042 | 1.543 | IC50 (eIF1A; [5]): 35.2 µM; IC50 (eIF1A; [6]): 35.3 µM; GUG vs AUG data (%) ([1]; compound at 20uM): 2.43% and 3.12% and 4.52% and 2.10%; GUG vs AUG (%) Average ([1]; compound at 20uM): 3.04%; IC50 (eIF1A-RPS10 interaction; [4]): 15 µM; Reference vs IRF7 (Final data, Fig. 1E) ([2]; 20 µM): 1.762; LONG (summary - All), normalized to DMSO ([2]; 20 µM): 0.26 and 0.60 and 0.49 and 0.43 and 0.25; SHORT (summary - All), normalized to DMSO ([2]; 20 µM): 0.54 and 0.80 and 0.85 and 0.72 and 0.67; Long 5'UTR reporter luciferase activity, normalized to DMSO (=1), single replicates ([2]; compound at 20 µM): 0.261 and 0.6001 and 0.4877 and 0.4313 and 0.2492; average ( long vs short ratio) ([2]; 20 µM): 0.568 |
| O=C(COc1ccccc1[N+](=O)[O-])NCc1ccc(-c2ccc(Br)cc2)o1 [1Ai-4700] | 0.4331 | 0.4284 | 2716 and 2411 and 2645 | 1163.5 and 1055.5 and 1429.5 | 0.428 and 0.438 and 0.540 | 1.051 and 0.9016 | 1.104 and 0.9037 | 1.126 and 0.8562 | 1.098 and 0.832 | 1.037 and 0.7686 | 0.8525 and 0.6514 | 0.7753 and 0.6291 | 0.583 and 0.5184 | 0.4409 and 0.3702 | 0.3305 and 0.2635 | 6.461 | 1.433 | 9.432 | 3.49 | 1.433 | GFP reporter ratio nsp1/gfp, rep 2 (NSP1): 0.4378; IC50 (eIF1A; [5]): 20.9 µM; IC50 (eIF1A; [6]): 20.9 µM; CUG vs AUG (%) [1, 7]: 5.455%; GUG vs AUG (%) [1, 7]: 0.6501%; GUG vs AUG data (%) ([1]; compound at 20uM): 3.85% and 2.62% and 3.02% and 4.47%; GUG vs AUG (%) Average ([1]; compound at 20uM): 3.49%; IC50 (eIF1A-RPS10 interaction; [4]): 11 µM; Reference vs IRF7 (Final data, Fig. 1E) ([2]; 20 µM): 2.452; LONG (summary - All), normalized to DMSO ([2]; 20 µM): 0.84 and 0.38 and 0.21 and 0.60; SHORT (summary - All), normalized to DMSO ([2]; 20 µM): 1.10 and 0.65 and 2.34 and 0.87; average ( long vs short ratio) ([2]; 20 µM): 0.408 |

— publication PMC12216609, “Inhibitors of eIF1A-ribosome interaction unveil uORF-dependent regulation of translation initiation and antitumor and antiviral effects” (The EMBO Journal, 2025)
